The molecules below were run on Banderia simplicifolia isolectin B4 (assay: Inhibition of lectin-induced haemagglutination (model of corneocyte cohesion)). Conditions: rabbit erythrocytes; lectin at twice its minimum haemagglutinating concentration; carbohydrate starting solution 0.1M, successive dilutions; 30 min contact at ambient temperature.
Assay type: cell-based
Experimental: A test to measure the efficacy of the carbohydrates was carried out in vitro. […] The principle of the test lies in the fact that the lectin causes agglutination of the erythrocytes. The products to be tested, which are prepared at various dilutions, are added to the lectin solutions. The minimum concentration of product allowing the inhibition of haemagglutination caused by the lectin is measured. […] To carry out the tests, rabbit erythrocytes marketed by the company Biomérieux under the reference 72291 are employed. These erythrocytes are used in 50% suspension in water. The lectin used is Banderia simplicifolia isolectin B4, marketed by the company SYGMA. All the solutions are diluted in phosphate buffer containing calcium and magnesium. The lectin is dissolved in the phosphate buffer at a concentration of 1 mg/ml. 25 μl of phosphate buffer are distributed in all the wells of the microtitre plates. 25 μl of the lectin to be tested are added to the second well. After homogenization, 25 μl from this well are transferred into the following well and so on to obtain successive dilutions. The erythrocytes are diluted to 1/10^e (fresh solution) . 5 μl of the suspension and 5 μl of the contents of a well are placed on a plate. After mixing by rotation, it is observed whether or not there is haemagglutination. The latter develops in 5 min at the maximum. The minimum quantity of lectin is thus measured, which allows a clear erythrocyte haemagglutination to be obtained. After having measured the minimum quantity of lectin which allows a clear erythrocyte haemagglutination to be obtained, it is chosen to work at twice the concentration. 25 μl of phosphate buffer are placed in microtitre plates to carry out a negative control. In the other wells are distributed 25 μl of lectin at the determined concentration. In the second well are added 25 μl of phosphate buffer to obtain a positive control. In the third well are placed 25 μl of the carbohydrate derivative to be tested in solution at a concentration of 0.1M. After homogenization, 25 μl from this well are taken and placed in the following well and so on so as to obtain successive dilutions. After having left the lectin and the carbohydrate derivative in contact for 30 min at ambient temperature, 5 μl are placed on a plate and are mixed with 5 μl of erythrocyte suspension. It is observed whether or not there is haemagglutination after agitation by rotation. The lowest carbohydrate dilution allowing inhibition of haemagglutination to be observed is measured. The result is given as a fraction (corresponding to the dilution) of the initial concentration (0.1M).

| Molecule | lowest carbohydrate dilution allowing inhibition of haemagglutination to be observed, given as a fraction (corresponding to the dilution) of the initial concentration (0.1M) |
| --- | --- |
| CCCCCCCC(=O)OC[C@H]1O[C@H](O[C@H]2[C@H](O)[C@@H](O)[C@H](O)O[C@@H]2CO)[C@H](O)[C@@H](O)[C@@H]1O [6′-O-octanoyl-D-maltose, 6′-O-octanoyl-β-D-maltose] | ¼ |
| CC(=O)N[C@H]1C(O)O[C@H](CO)[C@@H](O)[C@@H]1O (stereo partly drawn) [N-acetyl-D-glucosamine, reference compound] | no inhibition observed |
| CCCCCCCCOC(=O)N(C)C[C@H](O)[C@@H](O)[C@H](O)[C@H](O)CO [N-octyloxycarbonyl-N-methyl-D-glucamine] | 1/64 |
| N-2-ethylhexyloxy-carbonyl-N-methyl-D-glucamine | 1/16 |
